#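 Method: 48-hour compound exposure of cells in 96-well plates, five concentrations, linear interpolation of endpoints. At the GI50, growth is halved. Definition used: TGI = concentration required for complete inhibition of growth.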
# Assays:
# Test in all cases: inhibition of tumour cell growth, NCI panel, 48 h
# HS 578T breast = tested on: HS 578T breast
# MCF7 breast = tested on: MCF7 breast
# HCC-2998 colon = tested on: HCC-2998 colon
# NCI-H23 lung = tested on: NCI-H23 lung
# UACC-62 melanoma = tested on: UACC-62 melanoma
# HCT-116 colon = tested on: HCT-116 colon
# M14 melanoma = tested on: M14 melanoma
# OVCAR-5 ovarian = tested on: OVCAR-5 ovarian
# HOP-62 NSCLC = tested on: HOP-62 NSCLC
# OVCAR-3 ovarian = tested on: OVCAR-3 ovarian
# HT29 colon = tested on: HT29 colon
# PC-3 prostate = tested on: PC-3 prostate
# BT-549 breast = tested on: BT-549 breast
# SN12C renal = tested on: SN12C renal
# COLO 205 colon = tested on: COLO 205 colon
# DU-145 prostate = tested on: DU-145 prostate
# 786-0 renal = tested on: 786-0 renal
# UO-31 renal = tested on: UO-31 renal
# SW-620 colon = tested on: SW-620 colon
# EKVX NSCLC = tested on: EKVX NSCLC
# UACC-257 melanoma = tested on: UACC-257 melanoma
# SF-268 CNS = tested on: SF-268 CNS
# SNB-19 CNS = tested on: SNB-19 CNS
# SK-MEL-28 melanoma = tested on: SK-MEL-28 melanoma
# T-47D breast = tested on: T-47D breast
# SK-OV-3 ovarian = tested on: SK-OV-3 ovarian
# RPMI-8226 leukemia = tested on: RPMI-8226 leukemia
# A549 NSCLC = tested on: A549 NSCLC
# HCT-15 colon = tested on: HCT-15 colon
# A498 renal = tested on: A498 renal
# ACHN renal = tested on: ACHN renal
# SNB-75 CNS = tested on: SNB-75 CNS
# NCI/ADR-RES ovarian = tested on: NCI/ADR-RES ovarian
# OVCAR-8 ovarian = tested on: OVCAR-8 ovarian
# MDA-MB-231 breast = tested on: MDA-MB-231 breast
# NCI-H460 lung = tested on: NCI-H460 lung
# MOLT-4 leukemia = tested on: MOLT-4 leukemia
# IGROV1 ovarian = tested on: IGROV1 ovarian
# MALME-3M melanoma = tested on: MALME-3M melanoma
# SF-295 CNS = tested on: SF-295 CNS
# CAKI-1 renal = tested on: CAKI-1 renal
# K-562 leukemia = tested on: K-562 leukemia
# SK-MEL-5 melanoma = tested on: SK-MEL-5 melanoma
# U251 CNS = tested on: U251 CNS
# MDA-MB-435 = tested on: MDA-MB-435
# SK-MEL-2 melanoma = tested on: SK-MEL-2 melanoma
# SR leukemia = tested on: SR leukemia
# NCI-H226 lung = tested on: NCI-H226 lung
# SF-539 CNS = tested on: SF-539 CNS
# KM12 colon = tested on: KM12 colon
# HOP-92 NSCLC = tested on: HOP-92 NSCLC
# NCI-H522 lung = tested on: NCI-H522 lung
# CCRF-CEM leukemia = tested on: CCRF-CEM leukemia
# TK-10 renal = tested on: TK-10 renal
structure (smiles),measurement,setting,value
C=C(CN1CCc2ccccc2C1)c1ccc(CCC(=O)Nc2ccccc2N)cc1,GI50,HS 578T breast,44 µM
same,TGI,HS 578T breast,> 100 µM
same,GI50,MCF7 breast,21.1 µM
same,TGI,MCF7 breast,54.7 µM
same,GI50,HCC-2998 colon,17.1 µM
same,TGI,HCC-2998 colon,33.4 µM
same,GI50,NCI-H23 lung,28.6 µM
same,TGI,NCI-H23 lung,85.2 µM
same,GI50,UACC-62 melanoma,26.9 µM
same,TGI,UACC-62 melanoma,> 100 µM
same,GI50,HCT-116 colon,16.2 µM
same,TGI,HCT-116 colon,32.4 µM
same,GI50,M14 melanoma,17.6 µM
same,TGI,M14 melanoma,34.3 µM
same,GI50,OVCAR-5 ovarian,54.1 µM
same,TGI,OVCAR-5 ovarian,> 100 µM
same,GI50,HOP-62 NSCLC,65.7 µM
same,TGI,HOP-62 NSCLC,> 100 µM
same,GI50,OVCAR-3 ovarian,19.3 µM
same,TGI,OVCAR-3 ovarian,63.5 µM
same,GI50,HT29 colon,31 µM
same,TGI,HT29 colon,> 100 µM
same,GI50,PC-3 prostate,25.4 µM
same,TGI,PC-3 prostate,> 100 µM
same,GI50,BT-549 breast,16.4 µM
same,TGI,BT-549 breast,55.1 µM
same,GI50,SN12C renal,17.3 µM
same,TGI,SN12C renal,51 µM
same,GI50,COLO 205 colon,23.6 µM
same,TGI,COLO 205 colon,48 µM
same,GI50,DU-145 prostate,18.7 µM
same,TGI,DU-145 prostate,48.7 µM
same,GI50,786-0 renal,18.3 µM
same,TGI,786-0 renal,> 100 µM
same,GI50,UO-31 renal,12 µM
same,TGI,UO-31 renal,28.7 µM
same,GI50,SW-620 colon,28.3 µM
same,TGI,SW-620 colon,65.8 µM
same,GI50,EKVX NSCLC,37.1 µM
same,TGI,EKVX NSCLC,> 100 µM
same,GI50,UACC-257 melanoma,22.6 µM
same,TGI,UACC-257 melanoma,46.4 µM
same,GI50,SF-268 CNS,14.6 µM
same,TGI,SF-268 CNS,45.3 µM
same,GI50,SNB-19 CNS,64.3 µM
same,TGI,SNB-19 CNS,> 100 µM
same,GI50,SK-MEL-28 melanoma,42.6 µM
same,TGI,SK-MEL-28 melanoma,> 100 µM
same,GI50,T-47D breast,34.3 µM
same,TGI,T-47D breast,> 100 µM
same,GI50,SK-OV-3 ovarian,60.8 µM
same,TGI,SK-OV-3 ovarian,> 100 µM
same,GI50,RPMI-8226 leukemia,14.8 µM
same,TGI,RPMI-8226 leukemia,> 100 µM
same,GI50,A549 NSCLC,41.3 µM
same,TGI,A549 NSCLC,> 100 µM
same,GI50,HCT-15 colon,35.4 µM
same,TGI,HCT-15 colon,97.9 µM
same,GI50,A498 renal,26.1 µM
same,TGI,A498 renal,68.7 µM
same,GI50,ACHN renal,34.1 µM
same,TGI,ACHN renal,> 100 µM
same,GI50,SNB-75 CNS,25.3 µM
same,TGI,SNB-75 CNS,64.4 µM
same,GI50,NCI/ADR-RES ovarian,18.9 µM
same,TGI,NCI/ADR-RES ovarian,83.3 µM
same,GI50,OVCAR-8 ovarian,26.2 µM
same,TGI,OVCAR-8 ovarian,59.5 µM
same,GI50,MDA-MB-231 breast,18.6 µM
same,TGI,MDA-MB-231 breast,44.1 µM
same,GI50,NCI-H460 lung,16.8 µM
same,TGI,NCI-H460 lung,38.6 µM
same,GI50,MOLT-4 leukemia,4.65 µM
same,TGI,MOLT-4 leukemia,26 µM
same,GI50,IGROV1 ovarian,16.3 µM
same,TGI,IGROV1 ovarian,41.9 µM
same,GI50,MALME-3M melanoma,8.7 µM
same,TGI,MALME-3M melanoma,36.8 µM
same,GI50,SF-295 CNS,24.2 µM
same,TGI,SF-295 CNS,86.7 µM
same,GI50,CAKI-1 renal,20.9 µM
same,TGI,CAKI-1 renal,77.1 µM
same,GI50,K-562 leukemia,23 µM
same,TGI,K-562 leukemia,56.9 µM
same,GI50,SK-MEL-5 melanoma,18 µM
same,TGI,SK-MEL-5 melanoma,33.2 µM
same,GI50,U251 CNS,21.3 µM
same,TGI,U251 CNS,50.3 µM
same,GI50,MDA-MB-435,22.5 µM
same,TGI,MDA-MB-435,49.9 µM
same,GI50,SK-MEL-2 melanoma,23.9 µM
same,TGI,SK-MEL-2 melanoma,54 µM
same,GI50,SR leukemia,18.7 µM
same,TGI,SR leukemia,74.5 µM
same,GI50,NCI-H226 lung,27.1 µM
same,TGI,NCI-H226 lung,71.2 µM
same,GI50,SF-539 CNS,19.4 µM
same,TGI,SF-539 CNS,37 µM
same,GI50,KM12 colon,21.9 µM
same,TGI,KM12 colon,71.8 µM
same,GI50,HOP-92 NSCLC,87.4 µM
same,TGI,HOP-92 NSCLC,> 100 µM
same,GI50,NCI-H522 lung,16.2 µM
same,TGI,NCI-H522 lung,38.2 µM
same,GI50,CCRF-CEM leukemia,4.66 µM
same,TGI,CCRF-CEM leukemia,> 100 µM
same,GI50,TK-10 renal,43.1 µM
same,TGI,TK-10 renal,> 100 µM

# Reference: PubChem BioAssay (NCI)
